Tests used:
SB.mhdgc-1 = assay: AC50 for growth inhibition (viability) (log10 M); higher = less potent; settings: SB.mhdgc-1 (hereditary c.1380delA CDH1 gastric cancer)
Procedure, shortened: (§1)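 A four-parameter fit of viability, normalised to DMSO, gave the log half-maximal activity concentration, and only high-quality curve classes were kept. Cells came from hereditary or sporadic gastric cancer patients, 500 per 1536 well, and were dosed for 48 h at 11 threefold dilutions from a final 46 μM. Readout was CellTiter-Glo luminescence on a ViewLux.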

SB.msgc-1 = assay: as above; settings: SB.msgc-1 (sporadic gastric cancer)
Procedure, shortened: as §1

SMILES	AC50 for growth inhibition (log10 M) (SB.mhdgc-1)	AC50 for growth inhibition (log10 M) (SB.msgc-1)
CCC(=O)N[C@H]1CC[C@H](C(=O)N(C)c2ccc(-c3nc4ccccc4o3)cc2)C1 [FASN BI]	-5.93	-5.93
O=C(Cc1ccc(-c2ccc(OCCN3CCOCC3)cc2)cn1)NCc1ccccc1 [KX-01]	-8.18	-7.48
C[C@@]12OC(=O)[C@@]1(NC(=O)[C@@H]2CCCl)[C@@H](O)[C@H]\3CCC\C=C3 [Marizomib]	-7.68	-7.48
CC[S+](=O)([O-])N1CC(CC#N)(n2cc(-c3ncnc4[nH]ccc34)cn2)C1 [Baricitinib]	-4.88	-4.63
Nc1ccc(C(=O)c2cc3c(ccc4ccccc43)[nH]2)cc1 [IPFK2]	-4.73	-5.33
OC[C@H]1O[C@@H](Oc2ccc(O)cc2)[C@H](O)[C@@H](O)[C@@H]1O [Arbutin]	-4.93	-4.78
CC(C)c1cnn2c(NCc3ccccc3)cc(NCCCCCCN)nc12 [BS-181]	-4.83	-4.73
CNC(=O)c1ccc(N2C(=S)N(c3cnc(C#N)c(C(F)(F)F)c3)C(=O)C23CCC3)cc1F [ARN-509]	-6.53	-6.08
C[C@H]1[C@@H](OC(=O)CCC(=O)O)O[C@@H]2O[C@@]3(C)CC[C@H]4[C@H](C)CC[C@@H]1[C@@]24OO3 [Artesunate (AS)]	-5.03	-5.18
O=C(NCc1ccccc1)c1csc(Nc2ccncn2)n1 [Thiazovivin]	-4.78	-4.78
Cc1c(C(=O)c2cccc3ccccc23)c2cccc3c2n1[C@H](CN1CCOCC1)CO3	-4.93	-5.08
O=C(CCCCCCNC(=O)c1cnc(N(c2ccccc2)c2ccccc2)nc1)NO [ACY-1215]	-5.23	-5.08
CC1(C)C(N(O)C(=O)Nc2ccc(Cl)cc2)N(c2ccc(Cl)cc2)C(=O)N1CC(=O)N/N=C/C=C/c1ccc([N+](=O)[O-])o1 (stereo not given) [Eeyarestatin I]	-5.08	-5.03
COC[C@H](NC(=O)c1cnc(C)s1)C(=O)N[C@@H](COC)C(=O)N[C@@H](Cc1ccccc1)C(=O)[C@@]1(C)CO1 [Oprozomib]	-6.93	-6.93
Oc1c(Cl)cc(Cl)c2cccnc12 [Chloroxine]	-4.93	-4.68
CC1(C)CCC(=C(CN2CCN(CC2)C3=CC=C(C=C3)C(=O)N[S+]([O-])(=O)C4=CC(=C(N[C@H](CCN5CCOCC5)CSC6=CC=CC=C6)C=C4)[S+]([O-])(=O)C(F)(F)F)\C1)/C7=CC=C(Cl)C=C7 [Navitoclax]	-6.13	-5.13
CC(C)(O)CC(=O)NCCn1ccc2ncnc(Nc3ccc(Oc4cccc(C(F)(F)F)c4)c(Cl)c3)c21 [TAK-285]	-5.43	-6.88
CC1=CC=C(C=C1)N(C\C2=N\CCN2)C3=CC=CC(=C3)O [Phentolamine mesilate]	-4.98	-4.68
F\C1=C\NC(=O)NC1=O [Fluorouracil]	-6.43	-5.28
C[C@@H]1C[C@@H]([C@H](O)CC2CC(=O)NC(=O)C2)C(=O)[C@@H](C)C1 [cycloheximide]	-6.73	-6.53
COCCOc1nc(-c2ccc(Cl)c(Cl)c2)n(-c2ccc(NC(=O)CCl)cc2)n1 [MI-2]	-4.73	-5.08
O=C(c1ccc(Nc2nccc(-c3cc4ccccc4s3)n2)cc1)N1CCC(N2CCCC2)CC1 [IKK16]	-5.08	-4.88
COc1ccc2cc3[n+](cc2c1OC)CCc1cc2c(cc1-3)OCO2 [Berberine]	-4.98	-5.18

SMILES	AC50 for growth inhibition (log10 M) (SB.mhdgc-1)	AC50 for growth inhibition (log10 M) (SB.msgc-1)
Cc1cc(Nc2ncc3c(n2)N(C)C(=O)N(c2cc(NC(=O)c4cccc(C(F)(F)F)c4)ccc2C)C3)n(C)n1 [Pluripotin]	-5.23	-6.08
COc1ccc(Nc2cc(-c3cnc(N)nc3)nc(N3CCOCC3)n2)cn1 [NIBR-17]	-6.48	-5.18
CC(C)=CC[C@@H](O)C/1=C/C(=O)C2=C(O)C=CC(=C2C1=O)O [Shikonin]	-6.13	-5.83
COC1=CC=CC2=C1C(=NC(=N2)C3=CC=CS3)NN4C(=O)\C=C(C)/C4=O	-5.18	-4.88
CC(C)(C)NC(=O)[C@@H]1CN(Cc2cccnc2)CCN1C[C@@H](O)C[C@@H](Cc1ccccc1)C(=O)N[C@H]1c2ccccc2C[C@H]1O.O=S(=O)(O)O [Indinavir]	-6.08	-4.78
O=C(Nc1ccncc1)C(=O)c1cn(Cc2ccc(Cl)cc2)c2ccccc12 [Indibulin]	-6.28	-5.68
O=C1c2ccccc2-[n+]2ccc3c([nH]c4ccccc43)c21 [Fascaplysin]	-5.93	-6.18
N=C1S/C(=C\c2ccc(-c3ccc4c(c3)C(=O)NC4=O)o2)C(=O)N1c1ccc(Br)cc1 [Bioymifi]	-5.28	-5.43
C[C@H](NC(=O)c1sccc1OCc1ccc(Cl)cc1)c1ccccc1	-4.98	-4.73
C[C@H]1O[C@H](C[C@H](O)[C@@H]1O)O[C@H]2[C@@H](O)C[C@@H](O[C@@H]2C)O[C@H]3[C@@H](O)C[C@@H](O[C@@H]3C)O[C@H]4CC[C@@]5(C)[C@H](CC[C@@H]6[C@@H]5C[C@@H](O)[C@]7(C)[C@H](CC[C@]67O)C/8=C/C(=O)OC8)C4 [Digoxin]	-6.62	-6.62
NC1=C(Cl)C(=CC=N1)OC2=C(F)C=C(NC(=O)\C3=C\N\C=C(C3=O)\C4=CC=C(F)C=C4)C=C2	-6.43	-4.73
COC(=O)C\1=C(C)\N\C(=C(/C1C2=CC=CC3=NON=C23)C(=O)OC(C)C)C (stereo not given) [Isradipine]	-5.38	-4.78
CCC(=C/[C@H](C)C/C=C/C(C)=C/[C@@H](C)C(=O)[C@@H](C)[C@H](O)[C@@H](C)C/C(C)=C/C(=O)O)/C=C/[C@@H]1OC(=O)C=C[C@@H]1C [Elactocin]	-7.66	-7.06
N=C(NCCCCCCNC(=N)NC(=N)Nc1ccc(Cl)cc1)NC(=N)Nc1ccc(Cl)cc1 [Chlorhexidine]	-5.28	-5.43
O=C(CCCCCCC(=O)Nc1ccc([C@H]2O[C@@H](CSc3nc(-c4ccccc4)c(-c4ccccc4)o3)C[C@@H](c3ccc(CO)cc3)O2)cc1)NO [Tubacin]	-4.73	-4.58
c1ccc2c(CCNc3ccc(Nc4ccncc4)cc3)c[nH]c2c1 [Serdemetan]	-5.63	-4.73
O=C(/C=C/c1ccc(CN(CCO)CCc2c[nH]c3ccccc23)cc1)NO [Dacinostat]	-5.88	-6.63
COc1cc2c(cc1-c1c(C)noc1C)ncc1[nH]c(=O)n([C@H](C)c3ccccn3)c12 [I-BET151]	-4.93	-5.28
CCN(CC)C(=S)SSC(=S)N(CC)CC [Disulfiram]	-7.78	-7.28
COC[C@H](c1ccc(C(F)(F)F)cc1)N1CCN(C2(C)CCN(C(=O)c3c(C)ncnc3C)CC2)C[C@H]1C.O=C(O)/C=C\C(=O)O [Vicriviroc]	-5.33	-4.78
CC1(C)CCC[C@]2(C)[C@H]3CC(=O)O[C@]3(C)CC[C@@H]12 [Sclareolide]	-5.03	-4.78
Cc1ccc(CN2CCNCC2)cc1NC(=O)CNc1ccc(F)c(F)c1	-5.93	-5.38

Source: the supplement of paper PMC5412046
